Molecules are shown by their SMILES. Where only a bound is given, the exact number is not on record here.

As a reminder, the IC50 is the midpoint of a concentration-inhibition curve.

T1 sequence (P50579 whole entry): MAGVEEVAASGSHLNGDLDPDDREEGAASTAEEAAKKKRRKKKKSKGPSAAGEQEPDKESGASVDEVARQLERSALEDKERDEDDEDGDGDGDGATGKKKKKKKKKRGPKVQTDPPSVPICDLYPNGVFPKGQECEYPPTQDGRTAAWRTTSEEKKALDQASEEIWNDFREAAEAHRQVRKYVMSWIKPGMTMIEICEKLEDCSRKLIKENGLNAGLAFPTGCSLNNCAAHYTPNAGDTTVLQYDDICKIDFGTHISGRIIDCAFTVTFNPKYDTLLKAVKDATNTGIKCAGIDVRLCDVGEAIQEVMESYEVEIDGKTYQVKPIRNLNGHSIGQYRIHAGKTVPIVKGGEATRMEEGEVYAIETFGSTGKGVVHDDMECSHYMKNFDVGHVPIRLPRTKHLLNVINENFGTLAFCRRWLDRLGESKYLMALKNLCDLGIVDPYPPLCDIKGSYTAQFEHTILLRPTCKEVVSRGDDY

This test has as its target T1, recombinant human MetAP2 (Homo sapiens, UniProt P50579).
T1 construct: Flag; made in house; host or cells: Sf9 insect cells
Briefly: Inhibition of recombinant human MetAP2 activity (Amplex red fluorescence assay). In kind it is biochemical. As to conditions: manganese enzyme, 0.75 mM Methionine-Alanine-Serine (MAS) substrate, 30 minutes at 25° C., pH 7.5, 1% DMSO. The protocol: Compounds are tested for their capacity to inhibit recombinant human MetAP2 activity using the following assay.
Human recombinant Flag-MetAP2 expressed in Sf9 cells followed by affinity purification and EDTA treatment to remove endogenous active site cation is dialysed against MnCl2 to produce the manganese enzyme used in the assay. The assay is carried out for 30 minutes at 25° C. in 50 mM HEPES buffer containing 100 mM NaCl, pH 7.5 the presence of 0.75 mM Methionine-Alanine-Serine (MAS) substrate and […] amino acid oxidase using a dilution of purified MetAP2 giving approximately 50,000 RFU control activity. Cleavage of the substrate by MetAP2 and oxidation of free methionine by amino acid oxidase is detected and quantified using fluorescence generated by Amplex red (10-acetyl-3,7-dihydroxyphenoxazine) in combination with horseradish peroxidase which detects H2O2 released during the oxidation step. The fluorescent signal is detected using a multiwell fluorimeter. Compounds are diluted in DMSO prior to addition to assay buffer, the final DMSO concentration in the assay being 1%.
The IC50 is defined as the concentration at which a given compound achieves 50% inhibition of control. IC50 values are calculated using the XLfit software package (version 2.0.5).
On to `O=C(O)c1c(NS(=O)(=O)c2ccccc2)sc2c1CCCO2`, for which the IC50 is below 200 nM.
With `O=C(O)c1c(NS(=O)(=O)c2ccccc2Cl)sc2c1CCCC2` [2-(2-Chlorobenzenesulphonylamino)-4,5,6,7-tetrahydrobenzo[b]thiophene-3-carboxylic acid], the IC50 was in the range of 200 to 2000 nM.
On to `CCc1ccccc1S(=O)(=O)Nc1sc2c(c1C(=O)O)CCCC2` [2-(2-Ethylbenzenesulphonylamino)-4,5,6,7-tetrahydrobenzo[b]thiophene-3-carboxylic acid], for which the IC50 is below 200 nM.
With `O=C(O)c1c(NS(=O)(=O)c2ccccc2F)sc2c1CCCC2` [2-(2-Fluorobenzenesulphonylamino)-4,5,6,7-tetrahydrobenzo[b]thiophene-3-carboxylic acid], the IC50 lay within 200 to 2000 nM.
In the case of `COc1ccccc1S(=O)(=O)Nc1sc2c(c1C(=O)O)CCCC2` [2-(2-Methoxybenzenesulphonylamino)-4,5,6,7-tetrahydrobenzo[b]thiophene-3-carboxylic acid] it was below 200 nM.
Regarding `Cc1ccccc1S(=O)(=O)Nc1sc2c(c1C(=O)O)CCCC2` [2-(2-Methylbenzenesulphonylamino)-4,5,6,7-tetrahydrobenzo[b]thiophen-3-carboxylic acid], the IC50 was below 200 nM.
In the case of `O=C(O)c1c(NS(=O)(=O)c2ccccc2C(F)(F)F)sc2c1CCCC2` [2-(2-Trifluoromethylbenzenesulphonylamino)-4,5,6,7-tetrahydrobenzo[b]thiophene-3-carboxylic acid] it was 200 to 2000 nM; in that of `O=C(O)c1c(NS(=O)(=O)c2cccc(Cl)c2)sc2c1CCCC2` [2-(3-Chlorobenzenesulphonylamino)-4,5,6,7-tetrahydrobenzo[[b]thiophene-3-carboxylic acid], 200 to 2000 nM.
Regarding `COc1cccc(S(=O)(=O)Nc2sc3c(c2C(=O)O)CCCC3)c1` [2-(3-Methoxybenzenensulphonylamino)-4,5,6,7-tetrahydrobenzo[b]thiophene-3-carboxylic acid], the 50% inhibitory concentration (IC50) lay in the range of 200 to 2000 nM.
Turning to `O=C(O)c1c(NS(=O)(=O)c2ccc(Cl)cc2)sc2c1CCCC2` [2-(4-Chlorobenzenesulphonylamino)-4,5,6,7-tetrahydrobenzo[b]thiophene-3-carboxylic acid], the IC50 was 200 to 2000 nM.
`Cc1cc(F)ccc1S(=O)(=O)Nc1sc2c(c1C(=O)O)CCCC2` [2-(4-Fluoro-2-methylbenzenesulphonylamino)-4,5,6,7-tetrahydrobenzo[b]thiophene-3-carboxylic acid]: the 50% inhibitory concentration (IC50) lay within 200 to 2000 nM.
As to `O=C(O)c1c(NS(=O)(=O)c2ccc(F)cc2)sc2c1CCCC2` [2-(4-Fluorobenzenesulphonylamino)-4,5,6,7-tetrahydrobenzo[b]thiophene-3-carboxylic acid], the 50% inhibitory concentration (IC50) was below 200 nM.
In the case of `O=C(O)c1c(NS(=O)(=O)C2CCCCC2)sc2c1CCCC2` [2-(Cyclohexanesulphonylamino)-4,5,6,7-tetrahydrobenzo[b]thiophene-3-carboxylic acid] it was 200 to 2000 nM; in that of `CC1CCc2sc(NS(=O)(=O)c3ccccc3)c(C(=O)O)c2C1` (stereo not shown) [2-Benzenensulphonylamino-5-methyl-4,5,6,7-tetrahydrobenzo[b]thiophene-3-carboxylic acid], 200 to 2000 nM; in that of `Cn1c2c(c(C(=O)O)c1NS(=O)(=O)c1ccccc1)CCCC2` [2-Benzenesulphonylamino-1-methyl-4,5,6,7-tetrahydro-1H-indole-3-carboxylic acid], 200 to 2000 nM.
In the case of `O=C(O)c1c(NS(=O)(=O)c2ccccc2)sc2c1CCCC2` [2-Benzenesulphonylamino-4,5,6,7-tetrahydrobenzo[b]thiophene-3-carboxylic acid] it was below 200 nM.
Take `O=C(O)c1c(NS(=O)(=O)c2ccccc2)sc2c1CCOC2` [2-Benzenesulphonylamino-4,7-dihydro-5H-thieno[2,3-c]pyran-3-carboxylic acid]: the half-maximal inhibitory concentration (IC50) lay within 200 to 2000 nM.
In the case of `Cc1c(-c2ccccc2)sc(NS(=O)(=O)c2ccccc2)c1C(=O)O` [2-Benzenesulphonylamino-4-methyl-5-phenylthiophene-3-carboxylic acid], the IC50 is above 2000 nM.
In the case of `CC1(C)CCc2sc(NS(=O)(=O)c3ccccc3)c(C(=O)O)c2C1` [2-Benzenesulphonylamino-5,5-dimethyl-4,5,6,7-tetrahydrobenzo[b]thiophene-3-carboxylic acid] it was 200 to 2000 nM; in that of `O=C(O)c1c(NS(=O)(=O)c2ccccc2)sc2c1CCC2` [2-Benzenesulphonylamino-5,6-dihydro-4H-cyclopenta[b]thiophene-3-carboxylic acid], 200 to 2000 nM.
Turning to `Cc1c(-c2ccoc2)sc(NS(=O)(=O)c2ccccc2)c1C(=O)O` [2-Benzenesulphonylamino-5-(furan-3-yl)-4-methylthiophene-3-carboxylic acid], the concentration for half-maximal inhibition (IC50) was 200 to 2000 nM.
In the case of `O=C(O)c1cc(C2CCOCC2)sc1NS(=O)(=O)c1ccccc1` [2-Benzenesulphonylamino-5-(tetrahydropyran-4-yl)thiophene-3-carboxylic acid] it was above 2000 nM.
In the case of `CCc1sc(NS(=O)(=O)c2ccccc2)c(C(=O)O)c1C(C)C` [2-Benzenesulphonylamino-5-ethyl-4-isopropylthiophene-3-carboxylic acid] it was 200 to 2000 nM; in that of `CCc1sc(NS(=O)(=O)c2ccccc2)c(C(=O)O)c1C` [2-Benzenesulphonylamino-5-ethyl-4-methylthiophene-3-carboxylic acid], 200 to 2000 nM; in that of `O=C(O)c1cc(-c2ccccc2)sc1NS(=O)(=O)c1ccccc1` [2-Benzenesulphonylamino-5-phenylthiophene-3-carboxylic acid], above 2000 nM.
Consider `CC1(C)CCc2c(sc(NS(=O)(=O)c3ccccc3)c2C(=O)O)C1` [2-Benzenesulphonylamino-6,6-dimethyl-4,5,6,7-tetrahydrobenzo[b]thiophene-3-carboxylic acid], for which the half-inhibitory concentration (IC50) lay in the range of 200 to 2000 nM.
With `O=C(O)c1c(NS(=O)(=O)c2ccccc2)sc2c1COCC2` [2-Benzenesulphonylamino-6,7-dihydro-4H-thieno[3,2-c]pyran-3-carboxylic acid], the 50% inhibitory concentration (IC50) was 200 to 2000 nM.
Regarding `CC1CCc2c(sc(NS(=O)(=O)c3ccccc3)c2C(=O)O)C1` (stereo not shown) [2-Benzenesulphonylamino-6-methyl-4,5,6,7-tetrahydrobenzo[b]thiophene-3-carboxylic acid], the 50% inhibitory concentration (IC50) was below 200 nM.
In the case of `O=C(O)c1c(NS(=O)(=O)c2ccccc2)sc2ccccc12` [2-Benzenesulphonylaminobenzo[b]thiophene-3-carboxylic acid] it was above 2000 nM; in that of `O=C(O)c1c(NS(=O)(=O)Cc2ccccc2)sc2c1CCCC2` [2-Phenylmethanesulphonylamino-4,5,6,7-tetrahydrobenzo[b]thiophene-3-carboxylic acid], 200 to 2000 nM; in that of `CCN(CC)C/C=C\c1ccccc1S(=O)(=O)Nc1sc2c(c1C(=O)O)CCCC2` [2-[2-((Z)-3-Diethylaminoprop-1-enyl)benzenesulphonylamino]-4,5,6,7-tetrahydrobenzo[b]thiophene-3-carboxylic acid], 200 to 2000 nM.
